Legend:
C57B⅙ mice [1] = experiment: Blood chemistry, weight and histopathology of treated C57B⅙ mice; assay type: in vivo
Experimental: […] A range of doses was administered. Control animals received vehicle alone. The effect of quinazoline derivatives on total cholesterol, LDL, HDL, liver enzymes, and glucose was analyzed. The mice tissues were also examined histologically.
(§1) Serum levels alanine aminotransferase (ALT), alkaline phosphatase (ALP), lactate dehydrogenase (LDH), blood urea nitrogen (BUN), creatinine, creatinine phosphokinase (CPK), and glucose were determined by using a Synchron CX5 Clinical System (Beckman Instruments, Inc., Fullerton, Calif.) following manufacturer's instructions. For the glucose tolerance test, blood glucose levels were determined using the portable One Touch Profile glucose meter (Lifescan, Milpitas, Calif., USA).
(§2) At the end of the experiment, the animals were sacrificed and the harvested tissues were fixed in 10% phosphate buffered formalin overnight, embedded, sectioned, and stained by hematoxylin and eosin (H&E). The stained sections were examined for pathological changes. For Oil Red O staining, the liver was excised and snap frozen in liquid nitrogen. Five micrometer thick sections were obtained using the LeicaCM1800 cryostat (Heerbrugg, Switzerland), stained in 0.5% Oil Red O in propylene glycol for 1 hour, destained in 85% propylene glycol for 1 minute, rinsed twice in distilled water, counterstained in Mayer's hematoxylin for a few seconds, rinsed twice in distilled water, and mounted in Crystalmount (Biomedia Corp., Foster City, Calif.). The Oil Red O stainable material at 400 X magnification was quantitated using the ImagePro plus program (Media Cybernetics, Silver Spring, Md., USA) in conjunction with a 3CCD camera (DAGE-MTI Inc., Michigan City, USA).

apo e−/− mice [2] = experiment: In vivo hepatic VLDL-TG production using Triton WR1339 in apo e−/− mice
Experimental: (§3) C57B⅙ and apoE-deficient mice were treated with intraperitoneal injections of 50 μl vehicle or 40 mg/kg WHI-P164 in 50 μl vehicle for 7 consecutive days, followed by a 36 hour fast to shut down intestinal chylomicron synthesis. […] Blood samples were taken at 0 and 4 hours after Triton WR1339 injection and plasma TG levels were measured enzymatically using a commercially available enzymatic kit (Sigma Chemical Co.). Alternatively, food was returned to the mice after a 36 hour fast and blood samples were collected at 0, 1, 3, 6, and 9 hours after returning the food. Accumulation of chylomicron-TG was determined as accumulation of plasma TG.
(§4) To determine if WHI-P164 prevent hepatic TG accumulation by relieving 9 block in VLDL-TG secretion or by inhibiting upstream TG synthesis, in vivo hepatic VLDL-TG synthesis was analyzed. Synthesis was determined by following the accumulation of VLDL-TG after shutting down VLDL catabolism with Triton WR1339 injection and intestinal chylomicron synthesis with a 36 hours fast.
(§5) C57B⅙ and apoE-deficient mice were treated with intra peritoneal injections of vehicle or 40 mg/kg WHI-P164 (in 50 μl vehicle) for 7 consecutive days, followed by a 36 hour fast to shut down intestinal chylomicron synthesis. […] Blood samples (50 μl) were taken at 0 and 4 hours after Triton WR1339 injection and plasma TG was measured enzymatically using a commercially available enzymatic kit (Sigma Chemical Co.), as previously reported (Kuipers, supra).

apo e−/− mice [3] = experiment: Hepatic and plasma lipids (Oil Red O staining, tissue lipid extraction) in apo e−/− mice on Western diet; assay type: in vivo; conditions: 40 mg/kg/day for 1 week
Experimental: Serum total cholesterol was measured enzymatically using the cholesterol kit from Sigma Chemical Co. (St. Louis, Mo., USA). For liver tissue lipid measurements, lipids were extracted from homogenized hepatic tissues using the method of Bligh and Dyer (Bligh, et al., Can. J. Biochem. Phys. 1959, 37:911-917). One gram of liver tissue was homogenized in 1 ml of distilled water and extracted with 4 ml of chloroform/methanol (1:1, v/v). The chloroform phase containing the lipids was evaporated under a stream of nitrogen, the lipids dissolved in 100 μL of isopropanol, and subjected to cholesterol determination as described above. Triglyceride (TG) contents were determined using the TG kit from Sigma Chemical Co.
as §2
apo e^−/− mice accumulate large amounts of TG-rich lipid droplets in their livers, due a blocked VLDL-TG secretion (Kuipers et al., 1997, J. Clin. Invest. 100:2915-2922). […] When tissue lipids were measured, there was a 22% reduction in hepatic cholesterol 39% reduction in hepatic triglycerides.

C57B⅙ mice [4] = experiment: In vivo hepatic VLDL-TG production using Triton WR1339 in C57B⅙ mice
Experimental: as §3, §4, §5

apo e−/− mice [5] = experiment: Blood chemistry and histopathology of treated apo e−/− mice; assay type: in vivo; conditions: 8 mg/kg/day or 40 mg/kg/day
Experimental: Animals were treated with test compounds by intraperitoneal injection daily for 7 days. A range of doses was administered. Control animals received vehicle alone. The effect of quinazoline derivatives on total cholesterol, LDL, HDL, liver enzymes, and glucose was analyzed. The mice tissues were also examined histologically.
as §1, §2

[6] = C57B⅙ mice, indicated dose levels

## COc1cc2ncnc(C(=O)c3cccc(Br)c3)c2cc1OC [WHI-P164, 4-(3′-bromobenzoyl)-6,7-dimethoxyquinazoline]
C57B⅙ mice [1]; [6]
  Histopathologic examination of tissues: did not reveal any drug related toxic lesions
  Liver enzymes (ALT, ALP, LDH) and BUN/Creatinine: remained within normal limits
C57B⅙ mice [1]; C57B⅙ mice, indicated dose levels (1.6-16 mg/kg/day)
  Clinical or laboratory signs of toxicity: not associated with any obvious clinical or laboratory signs of toxicity
C57B⅙ mice [1]; treated C57B1/6 mice, 1 week
  ALP: 101 ± 3 IU/L
  BUN: 25.4 ± 2.0 mg/dL
  Glucose: 201 ± 18 mg/dL
  LD-L: 1402 ± 144 IU/L
  Net weight change: -0.26 ± 0.22 g
C57B⅙ mice [1]; treated C57B1/6 mice, 2 weeks
  ALP: 94 ± 10 IU/L
  ALT: 148 ± 54 IU/L
  LD-L: 459 ± 83 IU/L
  Net weight change: 1.88 ± 0.42 g
Apo e−/− mice [2]; apo e−/− (C57B1/6), 40 mg/kg i.p. 7 days, 36 hour fast
  Triglyceride, Pre-Triton WR 1339: 155 ± 14 (n = 10) mg/dL
Apo e−/− mice [2]; apo e−/− (C57B1/6), 40 mg/kg i.p. 7 days, 36 hour fast, 4 hours after Triton WR1339
  Triglyceride, Post-Triton WR 1339: 465 ± 46 (n = 8) mg/dL
Apo e−/− mice [2]; apo e−/− mice, 40 mg/kg, versus vehicle
  Accumulation of VLDL-TG after Triton WR1339 treatment: significantly less accumulation of VLDL-TG than vehicle-treated control mice
Apo e−/− mice [3]
  Oil Red O stainable lipid material in liver: 658±256 red pixels/field
  hepatic cholesterol: 51.4 ± 4.4 mg/g wet wt
  hepatic triglycerides: 211.6 ± 27 mg/g wet wt
  plasma FFA: 3.6 ± 0.3 mM
  plasma TG: 165 ± 19 mg/dL
Apo e−/− mice [3]; versus vehicle
  Reduction in hepatic cholesterol: 22%
  Reduction in hepatic triglycerides: 39%
  Reduction of liver lipid material (image analysis): 75%
C57B⅙ mice [4]; C57B⅙ mice, 40 mg/kg, versus vehicle
  Accumulation of VLDL-TG after Triton WR1339 treatment: significantly less accumulation of VLDL-TG than vehicle-treated control mice
C57B⅙ mice [4]; apo e+/+ (C57B1/6), 40 mg/kg i.p. 7 days, 36 hour fast
  Triglyceride, Pre-Triton WR 1339: 124 ± 12 (n = 5) mg/dL
C57B⅙ mice [4]; apo e+/+ (C57B1/6), 40 mg/kg i.p. 7 days, 36 hour fast, 4 hours after Triton WR1339
  Triglyceride, Post-Triton WR 1339: 1031 ± 95 (n = 8) mg/dL
Apo e−/− mice [5]
  Clinical or laboratory signs of toxicity: not associated with any obvious clinical or laboratory signs of toxicity
  Histopathologic examination of tissues: did not reveal any drug related toxic lesions
  Liver enzymes (ALT, AST, ALP, LDH), CPK levels, and BUN/Creatinine: remained within normal limits
